Measured values taken from US9708314B2, “Heterocyclic amide compound” (NISSAN CHEMICAL INDUSTRIES, LTD., priority 2013, dated 2017).

Legend:
Format in all cases: in vivo
Abutilon theophrasti = assay: Test Example 4: herbicidal effect by application to foliage (diluvial soil, plastic box); conditions: Application herbicide amount 320 g/ha
Method in brief: (§1)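 Read-out is a 0–5 visual grade of herbicidal ratio (5: ≥90%, almost withered; 0: ≤5%) taken three weeks after treatment. Compound was applied as a diluted emulsion to stem and leaf parts of 14-day greenhouse-grown plants (25° C. to 30° C.) at rates expressed as g/ha.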

Alopecurus myosuroides = assay: as above; conditions: Application herbicide amount 320 g/ha
Method in brief: as §1

Digitaria ciliaris = assay: as above; conditions: Application herbicide amount 320 g/ha
Method in brief: as §1

[1] = tested on: Echinochloa crus-galli var. crus-galli; assay: as above; conditions: Application herbicide amount 320 g/ha
Method in brief: as §1

Chenopodium album = assay: as above; conditions: Application herbicide amount 320 g/ha
Method in brief: as §1

Avena fatua = assay: as above; conditions: Application herbicide amount 320 g/ha
Method in brief: as §1

Galium spurium = assay: as above; conditions: Application herbicide amount 320 g/ha
Method in brief: as §1

Lolium multiflorum Lam. = assay: as above; conditions: Application herbicide amount 320 g/ha
Method in brief: as §1

Apera spica-venti. = assay: as above; conditions: Application herbicide amount 320 g/ha
Method in brief: as §1

Veronica persica = assay: as above; conditions: Application herbicide amount 320 g/ha
Method in brief: as §1

Setaria viridis = assay: as above; conditions: Application herbicide amount 320 g/ha
Method in brief: as §1

Scirpus juncoides = assay: Test Example 2: herbicidal activity, application during weed generation in submerged conditions; conditions: Eighteenth Table; application herbicide amount 320 g/ha
Method in brief: (§2)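 Paddy-type pot test: flooded soil, 4 cm depth, greenhouse 25–30 °C. Emulsion formulation diluted in water, applied to water surface at 1–2 leaf stage; rate expressed as g/ha. Read-out at 3 wk, 0–5 score.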

[2] = tested on: Echinochloa oryzacola Vasing.; assay: as above; conditions: Eighteenth Table; application herbicide amount 320 g/ha
Method in brief: as §2

Monochoria vaginalis = assay: as above; conditions: Eighteenth Table; application herbicide amount 320 g/ha
Method in brief: as §2

[3] = tested on: Beta vulgaris ssp. vulgaris; assay: Test Example 4: effect on crop by application to foliage (diluvial soil, plastic box); conditions: Application herbicide amount 320 g/ha; effect on crop
Method in brief: as §1

Glycine max = assay: as above; conditions: Application herbicide amount 320 g/ha; effect on crop
Method in brief: as §1

Zea mays = assay: as above; conditions: Application herbicide amount 320 g/ha; effect on crop
Method in brief: as §1

[4] = tested on: directly sowed Oryza sativa; assay: as above; conditions: Application herbicide amount 320 g/ha; effect on crop
Method in brief: as §1

Brassica campestris L. = assay: as above; conditions: Application herbicide amount 320 g/ha; effect on crop
Method in brief: as §1

Triticum aestivum = assay: as above; conditions: Application herbicide amount 320 g/ha; effect on crop
Method in brief: as §1

Cc1nnc(NC(=O)c2ccc(C(F)(F)F)n3c(-c4cncs4)nnc23)o1 [1-058]
M (Abutilon theophrasti): 5 (Herbicidal ratio of 90% or more (almost completely withered))
J (Alopecurus myosuroides): 3 (Herbicidal ratio of 40% or more and less than 70%)
F (Digitaria ciliaris): 5 (Herbicidal ratio of 90% or more (almost completely withered))
H [1]: 5 (Herbicidal ratio of 90% or more (almost completely withered))
O (Chenopodium album): 5 (Herbicidal ratio of 90% or more (almost completely withered))
I (Avena fatua): 3 (Herbicidal ratio of 40% or more and less than 70%)
Q (Galium spurium): 2 (Herbicidal ratio of 20% or more and less than 40%)
K (Lolium multiflorum Lam.): 3 (Herbicidal ratio of 40% or more and less than 70%)
L (Apera spica-venti.): 2 (Herbicidal ratio of 20% or more and less than 40%)
R (Veronica persica): 5 (Herbicidal ratio of 90% or more (almost completely withered))
G (Setaria viridis): 5 (Herbicidal ratio of 90% or more (almost completely withered))
B (Scirpus juncoides) herbicidal ratio grade (Scirpus juncoides): 5 (Herbicidal ratio of 90% or more (almost completely withered))
A (Echinochloa oryzicola Vasing.) herbicidal ratio grade [2]: 4 (Herbicidal ratio of 70% or more and less than 90%)
C (Monochoria vaginalis) herbicidal ratio grade (Monochoria vaginalis): 4 (Herbicidal ratio of 70% or more and less than 90%)
f [3]: 5 (Herbicidal ratio of 90% or more (almost completely withered))
c (Glycine max): 4 (Herbicidal ratio of 70% or more and less than 90%)
b (Zea mays): 5 (Herbicidal ratio of 90% or more (almost completely withered))
d [4]: 4 (Herbicidal ratio of 70% or more and less than 90%)
g (Brassica campestris L.): 4 (Herbicidal ratio of 70% or more and less than 90%)
e (Triticum aestivum): 1 (Herbicidal ratio of 5% or more and less than 20%)
